Test results taken from US20260200923A1, “HETEROCYCLIC COMPOUNDS TARGETING THE NUDT5 PROTEIN” (Oxford University Innovation Limited, priority 2022, published 2026).
Each block holds one compound with its values, some of them ahead of it.

Key:
NUDT14 = biological target: T1, NUDT14 (Homo sapiens, UniProt O95848); assay: AMP-Glo catalytic assay, NUDT14; type: biochemical; conditions: 2 nM NUDT14, ADPr substrate, 1 hour, mean±SD; read-out: NUDT14 IC50
T1 sequence (O95848 1-222): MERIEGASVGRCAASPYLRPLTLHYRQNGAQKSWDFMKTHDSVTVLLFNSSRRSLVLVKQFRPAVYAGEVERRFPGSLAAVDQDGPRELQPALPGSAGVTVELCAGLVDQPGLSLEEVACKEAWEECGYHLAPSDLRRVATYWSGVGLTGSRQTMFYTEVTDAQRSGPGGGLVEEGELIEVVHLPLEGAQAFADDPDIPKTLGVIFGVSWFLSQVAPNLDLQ
Protocol: To identify alternative X groups, a screening exercise was performed. […] Inhibition activities of the compounds were determined using AMP-Glo system (Promega). The compounds were diluted from 50 μM to 0 μM in a final reaction containing 20 mM Hepes, 100 mM NaCl, 0.5 mM TCEP, 1 mM MgCl2 and 0.1% BSA, pH 7.4. The reactions were performed in 1536 well plate in […] reaction volume with 2 nM of NUDT5 and NUDT14, and […] of ADPr as the substrate. The final DMSO concentration was 0.5% for all reactions. NUDT5 reactions were incubated for 20 minutes while NUDT14 reactions were carried out for 1 hour at room temperature. […] The reactions were further incubated with the 4 μl of Detection solution for 1 hour at room temperature. Luminescence signals were then measured in PHERAstar FSX plate reader. Experiments were done in triplicate sets and data were analysed by GraphPad Prism 9. Data are represented as the mean±SD of three biological experiments: […]

MTHFD1^KO cells = assay: growth of MTHFD1^KO cells in dialyzed serum media with compound supplementation; type: cell-based
Protocol: MTHFD1^KO cells in dialyzed FBS media were treated with a single nucleotide or folic acid metabolite for 72 hours. Cells were then stained with Hoechst, imaged, and counted using an Operetta (Perkin Elmer). For the AMPK activator studies, cells were stained with Hoechst, imaged, and counted using an Opera (Perkin Elmer). Similarly, MTHFD1^K56R cells in dialyzed FBS media were treated with adenosine for 72 hours. Cells were then stained with Hoechst, imaged, and counted using an Operetta (Perkin Elmer).
MTHFD1^KO cells (F5 clone) in dialyzed FBS media were treated with the CeMM compound library (89,228 chemically diverse compounds). Both cell number, using Hoechst staining, and CellTiter-Glo (Promega), an indicator of metabolically active cells, was both used as a readout, depending on the stage of the screen.
Briefly, the screening was divided into the three parts (i) primary screening, (ii) follow-up and (iii) validation. During the primary screen, MTHFD1^KO cells were treated with 10 μM of every compound and CellTiter-Glo (Promega) was used to assess their ability to increase cell growth after 48 hours. From this primary screening, 17 compounds were selected as hits and rescreened in the follow-up part, in which the MTHFD1^KO cells were treated in a six-point dose response for 72 hours to discard any false positives. Finally, in the validation part, MTHFD1^KO cells were treated with 10 compounds in an eight-point dose response curve and the cell numbers were counted by staining with Hoechst, imaging and counting nuclei using the Opera Phenix (Perkin Elmer) and Harmony software (Perkin Elmer).

NUDT5 [1] = biological target: T2, NUDT5 (Homo sapiens, UniProt Q9UKK9); assay: CRBN knock-out experiment, NUDT5 degradation; type: cell-based; design: endogenous in cells; host or cells: HEK293 (also CRBN knock-out HEK293 for A13); conditions: CRBN knock-out HEK293 cells, 20 h
NUDT5 [2] = biological target: T2, NUDT5; assay: NUDT5 degradation by Western blot in HEK293 cells; type: cell-based; design: endogenous in cells; host or cells: HEK293 (also CRBN knock-out HEK293 for A13)
Protocol: For Western blots, proteins were separated on polyacrylamide gels with SDS running buffer (50 mM Tris, 380 mM Glycine, 7 mM SDS) and transferred to PVDF membranes. All membranes were then blocked with blocking buffer (5% w/v milk powder, BioRad) in TBST (50 mM Tris (tris(hydroxymethylaminomethane), 150 mM NaCl, 0.05% (v/v) Tween 20, adjusted to pH 7.6) Proteins were probed with antibodies against phospho-AMPK (50081S, 1:2000, Cell Signaling Technologies), AMPK (5832S, 1:2000, Cell Signaling Technologies), PML (ab179466, 1:1000, abeam), PARP8 (NBP213733, 1:1000, Novus Biologicals), ATF2/7 (82870, 1:1000, Cell Signaling Technologies), alpha-Tubulin (ab7291, 1:1000, Abeam), phospho-UBTF (ab182583, 1:1000, abeam), UBTF (HPA006385, 1:1000, Sigma), RBM38 (AV40862, 1:1000, Sigma), or NUDT5 (ab129172, 1:1000, abeam), detected by HRP (horse-radish peroxidase) conjugated donkey anti-rabbit IgG antibody (Pierce) or donkey anti-mouse antibody IgG antibody (Pierce) and visualized with Clarity ECL Western Blotting substrate (BioRad), according to provided protocol.

SMILES: O=c1[nH]cnc2nc[nH]c12 [hypoxanthine]
rescue of growth in dialyzed serum (MTHFD1^KO cells): able to rescue the growth

SMILES: Nc1ncnc2c1ncn2[C@@H]1O[C@H](COP(=O)(O)O)[C@@H](O)[C@H]1O [AMP]
rescue of growth in dialyzed serum (MTHFD1^KO cells): able to rescue the growth

SMILES: Cn1c(=O)c2c(nc(N3CCN(C(=O)CCOCCOCCOCCNc4cccc5c4C(=O)N(C4CCC(=O)NC4=O)C5=O)CC3)n2Cc2nnc(-c3ccc(Cl)c(Cl)c3)o2)n(C)c1=O (centres unmarked) [Compound 127, 7-((5-(3,4-dichlorophenyl)-1,3,4-oxadiazol-2-yl)methyl)-8-(4-(3-(2-(2-(2-((2-(2,6-dioxopiperidin-3-yl)-1,3-dioxoisoindolin-4-yl)amino)ethoxy)ethoxy)ethoxy)propanoyl)piperazin-1-yl)-1,3-dimethyl-3,7-dihydro-1H-purine-2,6-dione]
dependence of degradation on E3 ligase (NUDT5 [1]): E3-ligase-dependant | NUDT5 degradation at 100 nM, 20 h (%) (NUDT5 [2]): 76%

SMILES: C[S+](CC[C@H](N)C(=O)[O-])C[C@H]1O[C@@H](n2cnc3c(N)ncnc32)[C@H](O)[C@@H]1O (some centres unmarked) [SAM]
rescue of growth in dialyzed serum (MTHFD1^KO cells): able to rescue the growth

SMILES: NC(=O)C1=CN([C@@H]2O[C@H](COP(=O)(O)OP(=O)(O)OC[C@H]3O[C@@H](n4cnc5c(N)ncnc54)[C@H](O)[C@@H]3O)[C@@H](O)[C@H]2O)C=CC1 [NADH]
rescue of growth in dialyzed serum (MTHFD1^KO cells): able to rescue the growth

SMILES: NC(=O)c1ccc[n+]([C@@H]2O[C@H](COP(=O)([O-])OP(=O)(O)OC[C@H]3O[C@@H](n4cnc5c(N)ncnc54)[C@H](O)[C@@H]3O)[C@@H](O)[C@H]2O)c1 [NAD]
rescue of growth in dialyzed serum (MTHFD1^KO cells): able to rescue the growth

SMILES: Cc1cc2nc3c(=O)[nH]c(=O)nc-3n(C[C@H](O)[C@H](O)[C@H](O)COP(=O)(O)OP(=O)(O)OC[C@H]3O[C@@H](n4cnc5c(N)ncnc54)[C@H](O)[C@@H]3O)c2cc1C [FAD]
rescue of growth in dialyzed serum (MTHFD1^KO cells): able to rescue the growth

SMILES: C=CC(=O)N1CCC=C(c2nn(C3CCN(C)CC3)c3ncnc(N)c23)C1 [Compound 5]
IC50 (NUDT14): 4270 ± 133 nM

Other lines, results leading:

IC50 (NUDT14): 548 ± 37 nM
SMILES: Nc1ncnc2[nH]nc(-c3ccc(Oc4ccccc4)cc3)c12 [Compound 3]

IC50 (NUDT14): 377 ± 35 nM
SMILES: CN1CCC(n2nc(-c3ccc(NC(=O)CCl)cc3)c3c(N)ncnc32)CC1 [Compound 8]

dependence of degradation on E3 ligase (NUDT5 [1]): E3-ligase-dependant | NUDT5 degradation at 100 nM, 20 h (%) (NUDT5 [2]): 81%
SMILES: Cn1c(=O)c2c(nc(N3CCN(C(=O)CCOCCOCCOCCOCCNc4cccc5c4C(=O)N(C4CCC(=O)NC4=O)C5=O)CC3)n2Cc2nnc(-c3ccc(Cl)c(Cl)c3)o2)n(C)c1=O (centres unmarked) [Compound 130, 7-((5-(3,4-dichlorophenyl)-1,3,4-oxadiazol-2-yl)methyl)-8-(4-(1-((2-(2,6-dioxopiperidin-3-yl)-1,3-dioxoisoindolin-4-yl)amino)-3,6,9,12-tetraoxapentadecan-15-oyl)piperazin-1-yl)-1,3-dimethyl-3,7-dihydro-1H-purine-2,6-dione]

IC50 (NUDT14): 604 ± 116 nM
SMILES: Cn1nc(-c2ccc(Oc3ccccc3)cc2)c2c(N)ncnc21 [Compound 2]

NUDT5 degradation at 100 nM, 20 h (%) (NUDT5 [2]): 46%
SMILES: Cn1c(=O)c2c(nc(N3CCN(CCC4CCN(c5ccc6c(c5)C(=O)N(C5CCC(=O)NC5=O)C6=O)CC4)CC3)n2Cc2nnc(-c3ccc(Cl)c(Cl)c3)o2)n(C)c1=O (centres unmarked) [Compound 102, 7-((5-(3,4-dichlorophenyl)-1,3,4-oxadiazol-2-yl)methyl)-8-(4-(2-(1-(2-(2,6-dioxopiperidin-3-yl)-1,3-dioxoisoindolin-5-yl)piperidin-4-yl)ethyl)piperazin-1-yl)-1,3-dimethyl-3,7-dihydro-1H-purine-2,6-dione]

NUDT5 degradation at 100 nM, 20 h (%) (NUDT5 [2]): 52% | Dmax (NUDT5 [2]; HEK293, NUDT5 degradation): 50%
SMILES: Cn1c(=O)c2c(nc(N3CCN(C(=O)CCOCCOCCNc4cccc5c4C(=O)N(C4CCC(=O)NC4=O)C5=O)CC3)n2Cc2nnc(-c3ccc(Cl)c(Cl)c3)o2)n(C)c1=O (centres unmarked) [Compound 068, 7-((5-(3,4-dichlorophenyl)-1,3,4-oxadiazol-2-yl)methyl)-8-(4-(3-(2-(2-((2-(2,6-dioxopiperidin-3-yl)-1,3-dioxoisoindolin-4-yl)amino)ethoxy)ethoxy)propanoyl)piperazin-1-yl)-1,3-dimethyl-3,7-dihydro-1H-purine-2,6-dione]
